Test results: patent US5750362A, “Methods for identifying substances with a potential herbicidal or growth-regulating action by means of plant transporter proteins, the use of the transporter proteins, and substances with a herbicidal and growth-regulating action” (BASF Aktiengesellschaft, priority 1993, dated 1998)

What was measured:
[1] = target: T1, sucrose transporter P62 (StSUT1) (Solanum tuberosum, UniProt Q43653); experiment: [14C]-sucrose uptake by yeast strain SUSY-7-P62 (StSUT1) expressing the potato sucrose transporter; format: cell-based; settings: [14C]-sucrose uptake, pH 3.8, read-out: Activity relative to the control [%]
T1 construct: whole-cell [14C]-sucrose uptake; no tag or borders given
T1 sequence (Q43653 1-516): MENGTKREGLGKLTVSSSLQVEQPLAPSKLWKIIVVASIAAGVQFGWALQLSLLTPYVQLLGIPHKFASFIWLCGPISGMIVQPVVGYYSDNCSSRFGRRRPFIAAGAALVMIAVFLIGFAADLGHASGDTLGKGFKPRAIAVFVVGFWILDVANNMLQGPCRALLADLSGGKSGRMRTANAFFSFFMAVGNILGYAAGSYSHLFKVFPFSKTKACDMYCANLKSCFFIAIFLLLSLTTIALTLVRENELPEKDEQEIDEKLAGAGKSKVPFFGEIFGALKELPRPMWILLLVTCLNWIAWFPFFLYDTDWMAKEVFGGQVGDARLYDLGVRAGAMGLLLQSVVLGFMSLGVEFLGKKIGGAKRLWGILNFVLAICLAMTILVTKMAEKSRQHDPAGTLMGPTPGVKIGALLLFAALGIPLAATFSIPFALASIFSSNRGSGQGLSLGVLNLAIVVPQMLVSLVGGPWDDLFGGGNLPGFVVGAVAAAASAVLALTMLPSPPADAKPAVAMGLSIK
Summary of the method: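 SUSY7 yeast expressing potato StSUT1, log-phase cells at 50 g/l wet weight, glucose-energised, pH 3.8. Test substances added 30 s before 0.2 mmol/l [14C]-sucrose solution; uptake sampled 20–240 s by filtration and scintillation, expressed as percent of uninhibited control; untransformed SUSY7 as further control.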

[2] = target: T2, ammonium transporter AMT1 (Arabidopsis thaliana, UniProt P54144); experiment: cell-based; settings: pH 7; [14C]-methylamine uptake; tested substance 10 μM; read-out: Activity relative to the control [%]
T2 construct: expressed in transfected cells; host or cells: Saccharomyces cerevisiae 26972c (mutations in MEP1 and MEP2)
T2 sequence (P54144 1-501): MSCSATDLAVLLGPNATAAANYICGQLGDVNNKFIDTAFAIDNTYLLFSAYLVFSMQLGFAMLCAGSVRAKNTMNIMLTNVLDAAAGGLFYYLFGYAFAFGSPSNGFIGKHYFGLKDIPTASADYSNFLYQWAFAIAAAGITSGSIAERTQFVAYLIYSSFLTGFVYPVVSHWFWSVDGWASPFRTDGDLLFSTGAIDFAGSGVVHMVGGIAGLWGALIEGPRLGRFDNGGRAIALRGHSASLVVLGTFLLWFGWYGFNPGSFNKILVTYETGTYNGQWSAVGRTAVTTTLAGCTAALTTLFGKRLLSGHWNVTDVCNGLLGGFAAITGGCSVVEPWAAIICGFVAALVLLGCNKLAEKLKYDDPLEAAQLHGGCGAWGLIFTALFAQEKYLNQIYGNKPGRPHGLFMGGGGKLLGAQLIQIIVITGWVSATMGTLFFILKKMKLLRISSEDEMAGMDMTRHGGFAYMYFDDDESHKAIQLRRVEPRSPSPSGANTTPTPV
Method: The measurements of transport identify inhibitors of plant ammonium transporters are carried out with the structural analog methylamine because radiolabeled ammonium is not commercially obtainable.
The yeast cells are transformed by standard methods with cDNA sequences which code for an ammonium transporter from plants and which permit expression of a functional transporter in the yeast cells. […] The cells are cultured in NAAG-medium (2% glucose, 1.7 g/l yeast nitrogen-base w/o amino acids and ammonium sulfate (Difco), supplemented with 500 μg/ml L-proline) at 28 degrees Celsius, and harvested in the logarithmic phase (OD660.=0.6). The cells are then spun down in a centrifuge at 4000 rpm and 4 degrees Celsius for 10 minutes, washed twice with 20 mM sodium phosphate buffer, pH 7, and taken up in the same buffer to an 0D660 of 8. 200 μl aliquot fractions of the cell suspension are taken. 5 minutes before the actual measurement,the yeasts are activated by addition of 100 mM glucose and incubated at 30 degrees Celsius. To start the reaction, 100 μl of the cell suspension are added to 100 µl of reaction mixture (20 mM Na phosphate buffer, pH7; 18.5 kBq of [^14 C]-methylamine (NEN); 100 M methylamine; substance to be tested depending on the experiment (see FIG. 4)). In each case 10, 60, 120 and 180 seconds after starting the reaction, 50 μl aliquots are taken, added to 4 ml of ice-cold 5 mM methylamine solution and filtered on glass fibre filters. After the filters have been washed with a further 8 ml of a methylamine solution, the radioactivity on the filters is subsequently determined in a liquid scintillation counter. Inhibitors are added 60 seconds before adding the glucose.
The uptake of radiolabeled methylamine without addition of a potential inhibitor is determined as one control.
The various tested substances, their concentration and the activity of the transporter, shown as percentage activity of the control in which no potential inhibitors were added, are indicated.

sucrose transporters = settings: Bush, 1989, Plant Physiol. 89: 1318-1323; result in words; cited from earlier work

| Structure (SMILES) | remaining activity at 10 µM ([1]; tested substance 10 μM) | remaining activity at 10 µM [2] | remaining activity at 500 µM ([1]; tested substance 0.5 mM) | Inhibition of sucrose transport (sucrose transporters) |
| --- | --- | --- | --- | --- |
| N#CC(C#N)=NNc1cccc(Cl)c1 [CCCP] | 9% | 40% |  |  |
| CCOC(=O)OC(=O)OCC [DEPC, diethyl pyrocarbonate] |  |  | 6% | highly effective transport inhibitors |
